Several values for one entry are separate records, joined by “and”; a condition that tells them apart may be missing. Equal entries are not always repeated. Where two headings read alike, the source gives them in different places.
How the values were obtained:
BRD4 = BRD4 (Homo sapiens, UniProt O60885); test: Western blot of BRD4 levels after cellular dosing; conditions: for BRD4 level, Western blot quantification (DMSO = 100): 1 uM; for BRD4 level relative to DMSO (100%): U2OS KO/Rescue, 1µM, 24 h
BRD2 = BRD2 (Homo sapiens, UniProt P25440); test: Western blot of BRD2 levels after cellular dosing
BRD3 = BRD3 (Homo sapiens, UniProt Q15059); test: Western blot of BRD3 levels after cellular dosing
KLHDC2 = biological target: T1, KLHDC2 (Homo sapiens, UniProt Q9Y2U9); test: Western blot of KLHDC2 levels after cellular dosing; conditions: for KLHDC2 level, Western blot quantification (DMSO = 100): 1 uM; for KLHDC2 level relative to DMSO (100%): U2OS KO/Rescue
T1 sequence (Q9Y2U9 1-406): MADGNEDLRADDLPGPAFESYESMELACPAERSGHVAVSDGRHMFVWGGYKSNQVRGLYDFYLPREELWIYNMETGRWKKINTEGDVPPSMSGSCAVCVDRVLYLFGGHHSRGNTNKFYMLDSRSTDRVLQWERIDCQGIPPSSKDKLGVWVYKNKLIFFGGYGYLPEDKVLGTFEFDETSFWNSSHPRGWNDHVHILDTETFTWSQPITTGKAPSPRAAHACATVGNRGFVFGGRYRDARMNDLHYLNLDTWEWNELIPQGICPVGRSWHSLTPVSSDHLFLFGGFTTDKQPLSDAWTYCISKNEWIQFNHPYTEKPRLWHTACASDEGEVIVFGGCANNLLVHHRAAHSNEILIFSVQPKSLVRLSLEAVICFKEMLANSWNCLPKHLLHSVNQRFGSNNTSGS

[1] = U2OS, 24 h, read-out: BRD2 level relative to DMSO (100%), U2OS KO/Rescue, 1µM, 24 h, Fig 6d
[2] = U2OS, 24 h, read-out: BRD3 level relative to DMSO (100%), U2OS KO/Rescue, 1µM, 24 h, Fig 6d
[3] = U2OS, 24 h, read-out: BRD2 level relative to DMSO (100%), U2OS KO/Rescue, 1µM, 24 h, Fig 6c
[4] = U2OS, 24 h, read-out: BRD3 level relative to DMSO (100%), U2OS KO/Rescue, 1µM, 24 h, Fig 6c

Chain of BRD3 (Q15059 whole entry): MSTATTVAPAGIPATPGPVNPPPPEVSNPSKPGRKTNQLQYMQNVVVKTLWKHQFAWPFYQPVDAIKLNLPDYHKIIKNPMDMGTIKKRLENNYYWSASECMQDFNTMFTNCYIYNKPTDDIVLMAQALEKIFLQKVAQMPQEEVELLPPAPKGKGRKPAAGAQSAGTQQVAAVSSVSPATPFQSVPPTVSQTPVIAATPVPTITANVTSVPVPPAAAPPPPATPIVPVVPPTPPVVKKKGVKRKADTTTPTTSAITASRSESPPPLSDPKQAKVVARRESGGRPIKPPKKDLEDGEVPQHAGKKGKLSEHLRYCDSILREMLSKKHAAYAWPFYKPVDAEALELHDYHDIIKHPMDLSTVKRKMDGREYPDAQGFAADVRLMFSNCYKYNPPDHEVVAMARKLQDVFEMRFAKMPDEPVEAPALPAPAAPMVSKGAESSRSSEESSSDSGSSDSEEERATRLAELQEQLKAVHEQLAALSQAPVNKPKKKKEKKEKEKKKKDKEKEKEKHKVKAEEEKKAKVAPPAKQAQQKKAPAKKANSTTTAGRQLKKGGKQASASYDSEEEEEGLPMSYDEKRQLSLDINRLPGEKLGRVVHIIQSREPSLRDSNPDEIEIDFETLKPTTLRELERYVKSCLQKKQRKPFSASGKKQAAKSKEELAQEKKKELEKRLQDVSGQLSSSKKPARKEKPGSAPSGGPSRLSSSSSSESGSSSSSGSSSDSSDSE
Chain of BRD2 (P25440 whole entry): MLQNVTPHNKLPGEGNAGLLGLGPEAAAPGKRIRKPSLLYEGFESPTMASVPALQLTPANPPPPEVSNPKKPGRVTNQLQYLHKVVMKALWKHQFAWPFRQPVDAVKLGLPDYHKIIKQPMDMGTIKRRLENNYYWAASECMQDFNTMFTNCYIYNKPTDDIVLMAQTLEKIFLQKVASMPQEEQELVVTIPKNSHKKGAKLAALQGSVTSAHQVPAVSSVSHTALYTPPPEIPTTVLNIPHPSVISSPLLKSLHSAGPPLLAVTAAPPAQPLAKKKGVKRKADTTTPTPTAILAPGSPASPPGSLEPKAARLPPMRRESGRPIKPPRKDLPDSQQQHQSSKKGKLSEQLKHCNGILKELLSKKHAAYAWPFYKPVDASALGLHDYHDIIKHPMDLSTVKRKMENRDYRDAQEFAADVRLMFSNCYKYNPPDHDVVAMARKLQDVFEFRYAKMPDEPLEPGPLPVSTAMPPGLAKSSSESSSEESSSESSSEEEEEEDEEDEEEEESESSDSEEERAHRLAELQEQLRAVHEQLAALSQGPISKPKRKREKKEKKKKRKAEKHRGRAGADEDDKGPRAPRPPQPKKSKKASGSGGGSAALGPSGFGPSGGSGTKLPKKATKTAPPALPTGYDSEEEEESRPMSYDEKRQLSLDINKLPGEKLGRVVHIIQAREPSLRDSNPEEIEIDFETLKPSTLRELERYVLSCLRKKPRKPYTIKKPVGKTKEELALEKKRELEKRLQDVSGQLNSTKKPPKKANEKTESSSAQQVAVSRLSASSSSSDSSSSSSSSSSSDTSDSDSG

Compound | BRD4 level, Western blot quantification (DMSO = 100) (BRD4; Fig 6d) | BRD4 level relative to DMSO (100%) (BRD4; Fig 6d) | remaining activity at 1 µM (BRD2; [1]) [%] | remaining activity at 1 µM (BRD3; [2]) [%] | KLHDC2 level, Western blot quantification (DMSO = 100) (KLHDC2; Fig 6d) | KLHDC2 level relative to DMSO (100%) (KLHDC2; 1µM, 24 h, Fig 6d) | BRD4 level relative to DMSO (100%) (BRD4; Fig 6c) | remaining activity at 1 µM (BRD2; [3]) [%] | remaining activity at 1 µM (BRD3; [4]) [%] | KLHDC2 level relative to DMSO (100%) (KLHDC2; 1µM, 24 h, Fig 6c) | BRD4 level, Western blot quantification (DMSO = 100) (BRD4; Fig 6c) | remaining activity at 1 µM (BRD2; U2OS, 24 h, read-out: BRD2 level relative to DMSO (100%), U2OS KO/Rescue, 1µM + co-dosing 1µM MLN4924, 24 h, Fig 6d) [%] | remaining activity at 1 µM (BRD2; read-out: BRD2 level, Western blot quantification (DMSO = 100), Fig 6c, 1 uM) [%] | remaining activity at 1 µM (BRD2; read-out: BRD2 level, Western blot quantification (DMSO = 100), Fig 6d, 1 uM) [%] | remaining activity at 1 µM (BRD3; U2OS, 24 h, read-out: BRD3 level relative to DMSO (100%), U2OS KO/Rescue, 1µM + co-dosing 1µM MLN4924, 24 h, Fig 6d) [%] | remaining activity at 1 µM (BRD3; read-out: BRD3 level, Western blot quantification (DMSO = 100), Fig 6c, 1 uM) [%] | remaining activity at 1 µM (BRD3; read-out: BRD3 level, Western blot quantification (DMSO = 100), Fig 6d, 1 uM) [%] | KLHDC2 level, Western blot quantification (DMSO = 100) (KLHDC2; Fig 6c) | KLHDC2 level relative to DMSO (100%) (KLHDC2; 1µM + co-dosing 1µM MLN4924, 24 h, Fig 6d)
NS(=O)(=O)OC[C@@H]1C[C@@H](n2ccc3c(N[C@H]4CCc5ccccc54)ncnc32)C[C@@H]1O [MLN4924, reference compound] | 136.422 and 116.069 | 130 +/- 14% | 170 ± 21 | 120 ± 23 | 3372.82 and 2800.12 | 3090 +/- 404% | – | – | – | – | – | – | – | – | – | – | – | – | –
Cc1sc2c(c1C)C(c1ccc(Cl)cc1)=N[C@@H](CC(=O)N1CCN(CCOc3cccc4ccc(-c5nc(CC(=O)NCC(=O)OCc6ccccc6)cs5)cc34)CC1)c1nnc(C)n1-2 [SJ48087] | – | – | – | – | – | – | 101 +/- 11% | 90 ± 4 | 89 ± 7.3 | 221 +/- 27% | – | – | – | – | – | – | – | – | –
Cc1sc2c(c1C)C(c1ccc(Cl)cc1)=N[C@@H](CC(=O)N1CCN(CCOc3cccc4ccc(-c5nc(CC(=O)NCC(=O)OC6CCCC6)cs5)cc34)CC1)c1nnc(C)n1-2 [SJ48088] | 72.2613 and 75.636 | 74 +/- 2.5% | 78 ± 7.4 | 24 ± 4.6 | 1961.3 and 1506.23 | 1733 +/- 321% | 79 +/- 9.6% | 83 ± 9.7 | 46 ± 1.5 | 606 +/- 190% | 85.9664 and 71.4338 | 270 ± 67 | 75.6 | 73.2 | 120 ± 6.2 | 47.1 | 20.7 | 472.526 and 740.895 | 4837 +/- 513%
